# Columns and labels:
# [1] = Increasing the solubility of cucurbiturils in water: appearance of aqueous compositions comprising cucurbiturils; assay type: physicochemical; settings: 0.2 percent by weight cucurbituril sample, 25° C.
# Description: Compositions consisting of the cucurbituril sample and water and compositions consisting of the cucurbituril sample, other substances but no solubilizing agents according to component Z2) of the inventive aqueous compositions, and water were prepared and used as comparative compositions.
# [2] = in water at room temperature (25° C.); cited from earlier work
# [3] = Malodor removing effect: headspace GC-MS measurement of odorants; settings: headspace 60° C. 30 min, no agent/no cucurbiturils = 100
# Description: An artificial malodor composition was prepared by mixing 10 mg of 2,3-butanedione, 5 mg of octanal, 30 mg of isovaleraldehyde, 300 mg of isovaleric acid and 50 mg of hexanal in 1 L of water.
# The cucurbituril sample contains cucurbit[6]uril (50% by weight), cucurbit[7]uril (35% by weight) and cucurbit[8]uril (10% by weight).
# Aqueous cucurbituril composition B: 0.5% by weight of the cucurbituril sample was mixed in water.
# 1 mL of aqueous cucurbituril composition A or B, 1 mL of malodor composition and 3 mL of water were mixed.
# 1 mL of 5% by weight of solubilizing agent in water, 1 mL of malodor composition and 3 mL of water were mixed.
# 4 mL of water and 1 mL of malodor composition were mixed.
# The mixtures were prepared in headspace vials. The vials were then closed tightly and analyzed.
# Analytical evaluation of malodor in the vials was conducted through a headspace measurement. A Gas Chromatograph Agilent 9000 Intuvo equipped with an autosampler Agilent 7697A equipped with a headspace extracting syringe, a Mass Detector Agilent MSD 5977B was used.
# The headspace vials were equilibrated at 60° C. for 30 min at the autosampler before the measurement. A gas phase sample of 1000 μL was extracted from the vial and injected into the GC column. • Carrier gas: Helium 22.7 psi, split 5:1 • Column: DB-624 UI (length 60m, diameter 250 μm, size of film 1.4 μm) • Oven: Initial 40° C.—Hold time 2 mb—Rate 20° C./min—Temperature 260° C. —Hold time 5 min • Mass detector parameter: run in select ion mode. The peak area of each odorant was then integrated and recorded.
# [4] = substance at 10 percent by weight in water
# [5] = substance at 5 percent by weight in water
# [6] = mixture contains cucurbiturils: 1 mL composition A (5% agent + 0.5% cucurbituril sample) or B (0.5% sample only) + 1 mL malodor composition + 3 mL water
# [7] = mixture without cucurbiturils: 1 mL of 5% by weight solubilizing agent + 1 mL malodor composition + 3 mL water
molecule,measurement,setting,value
[Ca+2].[Cl-].[Cl-] [CaCl2],Appearance,[1]; [4],very turbid
CCO [Ethanol],Appearance,[1]; [4],very turbid
CC(O)CO (stereo not shown) [Propylene glycol],Appearance,[1]; [4],very turbid
O=C1N2CN3C(=O)N4CN5C(=O)N6CN7C(=O)N8CN9C(=O)N%10CN%11C(=O)N%12CN1C1C2N2CN%13C(=O)N(CN%14C(=O)N(CN%15C(=O)N(CN%16C(=O)N(CN%17C(=O)N(CN1C2=O)C%12C%11%17)C%10C9%16)C8C7%15)C6C5%14)C4C3%13 (stereo not shown) [cucurbit[6]uril],water solubility,[2],18 µg/mL
O=C1N2CN3C(=O)N4CN5C(=O)N6CN7C(=O)N8CN9C(=O)N%10CN%11C(=O)N%12CN%13C(=O)N%14CN%15C(=O)N%16CN1C1C2N2CN%17C(=O)N(CN%18C(=O)N(CN%19C(=O)N(CN%20C(=O)N(CN%21C(=O)N(CN%22C(=O)N(CN%23C(=O)N(CN1C2=O)C%16C%15%23)C%14C%13%22)C%12C%11%21)C%10C9%20)C8C7%19)C6C5%18)C4C3%17 (stereo not shown) [cucurbit[8]uril],water solubility,[2],17 µg/mL
Alkylbenzene sulfonate,Appearance,[1]; [5],very turbid
C12/14 alkyl ethoxylate with 8 EO,Appearance,[1]; [5],very turbid
Sodium laureth sulfate,Appearance,[1]; [5],very turbid
lauramine oxide [Genaminox LA],"Relative peak area 2,3-butadione",[3]; [6],11
same,Relative peak area hexanal,[3]; [6],9
same,Relative peak area isovaleraldehyde,[3]; [6],6
same,Relative peak area isovaleric acid,[3]; [6],3
same,Relative peak area octanal,[3]; [6],73
same,"Relative peak area 2,3-butadione",[3]; [7],181
same,Relative peak area hexanal,[3]; [7],203
same,Relative peak area isovaleraldehyde,[3]; [7],182
same,Relative peak area isovaleric acid,[3]; [7],10
same,Relative peak area octanal,[3]; [7],134
same,Appearance,[1]; [5],clear

# From patent US20260193571A1, “AQUEOUS COMPOSITION CONTAINING CUCURBITURILS” (Clariant International Ltd, priority 2022, published 2026)
